Assay results from patent US7498409B2, “Screening assay for TLR7, TLR8 and TLR9 agonists and antagonists” (Schering Corporation, priority 2005, dated 2009).

Key:
wild-type TLR7 = biological target: T1, wild-type TLR7 (Homo sapiens, UniProt Q9NYK1); experiment: NFκB-luciferase reporter assay in transfected HEK 293 cells, wild-type TLR7; assay type: cell-based
T1 construct: expressed in transfected cells; host or cells: HEK 293
T1 sequence (Q9NYK1 27-1049): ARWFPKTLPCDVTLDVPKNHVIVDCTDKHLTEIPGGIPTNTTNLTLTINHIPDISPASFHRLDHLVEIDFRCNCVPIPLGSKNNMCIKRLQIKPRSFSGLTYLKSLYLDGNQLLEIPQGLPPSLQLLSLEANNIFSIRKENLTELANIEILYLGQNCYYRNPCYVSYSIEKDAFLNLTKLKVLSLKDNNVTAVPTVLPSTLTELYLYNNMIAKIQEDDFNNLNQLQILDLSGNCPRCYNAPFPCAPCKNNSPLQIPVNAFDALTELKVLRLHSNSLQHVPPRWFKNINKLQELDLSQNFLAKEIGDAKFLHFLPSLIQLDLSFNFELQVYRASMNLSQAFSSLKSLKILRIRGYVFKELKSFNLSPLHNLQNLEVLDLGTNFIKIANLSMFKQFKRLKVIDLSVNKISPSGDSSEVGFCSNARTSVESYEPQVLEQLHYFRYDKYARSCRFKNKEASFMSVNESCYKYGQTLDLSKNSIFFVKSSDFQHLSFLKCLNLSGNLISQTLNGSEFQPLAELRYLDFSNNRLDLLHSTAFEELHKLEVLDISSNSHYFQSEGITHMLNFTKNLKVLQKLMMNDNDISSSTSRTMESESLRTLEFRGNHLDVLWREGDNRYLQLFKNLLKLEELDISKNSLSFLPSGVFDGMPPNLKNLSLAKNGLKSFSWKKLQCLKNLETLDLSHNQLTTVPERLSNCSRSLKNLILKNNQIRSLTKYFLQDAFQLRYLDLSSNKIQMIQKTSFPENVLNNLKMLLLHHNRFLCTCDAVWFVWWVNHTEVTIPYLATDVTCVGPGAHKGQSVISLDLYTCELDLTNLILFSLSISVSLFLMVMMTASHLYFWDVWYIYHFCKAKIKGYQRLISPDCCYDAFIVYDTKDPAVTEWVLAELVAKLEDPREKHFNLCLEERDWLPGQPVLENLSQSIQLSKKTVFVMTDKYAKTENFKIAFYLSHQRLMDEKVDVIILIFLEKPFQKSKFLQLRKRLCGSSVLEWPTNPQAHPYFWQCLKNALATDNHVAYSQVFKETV
Source text: (§1) Wells without agonist served as negative controls.

[1] = biological target: T2, mutant TLR7 containing a deletion in the second LRR (Homo sapiens, UniProt Q9NYK1, DEL102-106); experiment: NFκB-luciferase reporter assay in transfected HEK 293 cells, mutant TLR7 (pCMVhuTLR7Δ2); assay type: cell-based; design: fold lower concentration sufficient for full activation of mutant TLR7 versus wild-type TLR7: dose or concentration left out as unconfirmed
T2 construct: expressed in transfected cells; host or cells: HEK 293
T2 sequence (Q9NYK1 with tags, fused parts or gaps DEL102-106): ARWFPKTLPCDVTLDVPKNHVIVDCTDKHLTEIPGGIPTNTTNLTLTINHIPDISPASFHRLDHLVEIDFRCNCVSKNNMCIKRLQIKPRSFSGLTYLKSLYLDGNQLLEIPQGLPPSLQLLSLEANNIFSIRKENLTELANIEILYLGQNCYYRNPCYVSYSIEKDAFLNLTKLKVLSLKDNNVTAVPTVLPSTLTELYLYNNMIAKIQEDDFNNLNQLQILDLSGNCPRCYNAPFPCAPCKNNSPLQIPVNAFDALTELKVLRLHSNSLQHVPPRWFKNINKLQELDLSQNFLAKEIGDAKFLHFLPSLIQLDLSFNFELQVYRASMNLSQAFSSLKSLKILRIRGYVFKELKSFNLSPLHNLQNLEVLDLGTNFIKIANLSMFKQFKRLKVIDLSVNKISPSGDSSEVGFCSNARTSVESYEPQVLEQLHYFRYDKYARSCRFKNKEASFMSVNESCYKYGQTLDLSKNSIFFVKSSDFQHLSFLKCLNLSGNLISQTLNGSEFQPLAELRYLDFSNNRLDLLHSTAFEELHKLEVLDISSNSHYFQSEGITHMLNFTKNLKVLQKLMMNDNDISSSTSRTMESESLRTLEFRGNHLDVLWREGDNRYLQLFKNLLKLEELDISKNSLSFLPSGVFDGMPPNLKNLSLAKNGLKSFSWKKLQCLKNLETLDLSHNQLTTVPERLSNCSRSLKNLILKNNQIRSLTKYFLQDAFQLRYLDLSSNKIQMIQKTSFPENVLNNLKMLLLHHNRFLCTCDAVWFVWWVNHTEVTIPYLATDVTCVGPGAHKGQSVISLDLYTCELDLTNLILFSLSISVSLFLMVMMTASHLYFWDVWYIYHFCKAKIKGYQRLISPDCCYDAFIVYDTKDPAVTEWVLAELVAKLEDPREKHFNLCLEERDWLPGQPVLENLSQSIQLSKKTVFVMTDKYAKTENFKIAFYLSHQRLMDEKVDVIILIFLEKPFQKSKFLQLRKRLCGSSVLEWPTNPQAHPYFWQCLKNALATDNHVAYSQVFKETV
Source text: (§2) ID NO: 11) and the antisense primer [NT] ID NO: 12). […] The mutation was confirmed by DNA sequencing. […] Wells without agonist served as negative controls.

[2] = system: mutant TLR7 containing a deletion in the second LRR; experiment: as above; assay type: cell-based, human; design: fold lower concentration sufficient for full activation of mutant TLR7 versus wild-type TLR7: dose or concentration left out as unconfirmed
Source text: as §2

wild-type TLR8 = biological target: T3, wild-type TLR8 (Homo sapiens, UniProt Q9NR97); experiment: NFκB-luciferase reporter assay in transfected HEK 293 cells, wild-type TLR8; assay type: cell-based
T3 construct: printed for the mutant only, inferred for the wild type (N); expressed in transfected cells; host or cells: HEK 293
T3 sequence (Q9NR97 1-1059 isoform Q9NR97-2): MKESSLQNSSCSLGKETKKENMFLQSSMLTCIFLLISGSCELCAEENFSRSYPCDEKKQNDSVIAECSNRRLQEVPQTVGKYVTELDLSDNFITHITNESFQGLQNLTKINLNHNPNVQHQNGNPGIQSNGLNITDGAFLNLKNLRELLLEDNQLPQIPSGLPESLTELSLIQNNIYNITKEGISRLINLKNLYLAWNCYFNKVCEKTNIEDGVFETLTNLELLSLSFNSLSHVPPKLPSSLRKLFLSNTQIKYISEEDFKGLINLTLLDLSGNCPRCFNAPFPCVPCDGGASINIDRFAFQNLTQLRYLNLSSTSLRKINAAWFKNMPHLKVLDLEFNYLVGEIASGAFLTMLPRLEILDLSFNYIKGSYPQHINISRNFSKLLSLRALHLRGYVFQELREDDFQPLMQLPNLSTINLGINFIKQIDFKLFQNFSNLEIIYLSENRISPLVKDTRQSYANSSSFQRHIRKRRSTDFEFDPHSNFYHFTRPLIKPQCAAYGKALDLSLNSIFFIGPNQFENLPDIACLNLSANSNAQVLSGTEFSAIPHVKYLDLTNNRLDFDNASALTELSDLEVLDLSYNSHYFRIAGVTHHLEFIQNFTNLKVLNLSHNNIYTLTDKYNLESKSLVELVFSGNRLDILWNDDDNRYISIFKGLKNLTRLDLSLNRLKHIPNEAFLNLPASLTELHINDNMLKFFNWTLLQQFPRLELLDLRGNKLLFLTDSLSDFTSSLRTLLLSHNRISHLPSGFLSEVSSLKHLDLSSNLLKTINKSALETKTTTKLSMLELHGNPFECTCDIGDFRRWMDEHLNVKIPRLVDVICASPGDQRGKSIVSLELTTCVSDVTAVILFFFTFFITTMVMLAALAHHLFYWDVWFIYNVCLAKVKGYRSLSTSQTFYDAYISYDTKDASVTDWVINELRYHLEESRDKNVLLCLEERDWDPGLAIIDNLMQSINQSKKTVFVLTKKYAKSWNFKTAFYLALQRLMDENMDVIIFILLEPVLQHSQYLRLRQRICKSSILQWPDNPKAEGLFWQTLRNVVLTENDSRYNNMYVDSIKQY
Source text: as §1

[3] = biological target: T4, mutant TLR8 containing a deletion in the second LRR (Homo sapiens, UniProt Q9NR97, DEL100-104); experiment: NFκB-luciferase reporter assay in transfected HEK 293 cells, mutant TLR8 (pCMVhuTLR8Δ2); assay type: cell-based; conditions: HEK 293, 5 h
T4 construct: expressed in transfected cells; host or cells: HEK 293
T4 sequence (Q9NR97 with tags, fused parts or gaps DEL100-104): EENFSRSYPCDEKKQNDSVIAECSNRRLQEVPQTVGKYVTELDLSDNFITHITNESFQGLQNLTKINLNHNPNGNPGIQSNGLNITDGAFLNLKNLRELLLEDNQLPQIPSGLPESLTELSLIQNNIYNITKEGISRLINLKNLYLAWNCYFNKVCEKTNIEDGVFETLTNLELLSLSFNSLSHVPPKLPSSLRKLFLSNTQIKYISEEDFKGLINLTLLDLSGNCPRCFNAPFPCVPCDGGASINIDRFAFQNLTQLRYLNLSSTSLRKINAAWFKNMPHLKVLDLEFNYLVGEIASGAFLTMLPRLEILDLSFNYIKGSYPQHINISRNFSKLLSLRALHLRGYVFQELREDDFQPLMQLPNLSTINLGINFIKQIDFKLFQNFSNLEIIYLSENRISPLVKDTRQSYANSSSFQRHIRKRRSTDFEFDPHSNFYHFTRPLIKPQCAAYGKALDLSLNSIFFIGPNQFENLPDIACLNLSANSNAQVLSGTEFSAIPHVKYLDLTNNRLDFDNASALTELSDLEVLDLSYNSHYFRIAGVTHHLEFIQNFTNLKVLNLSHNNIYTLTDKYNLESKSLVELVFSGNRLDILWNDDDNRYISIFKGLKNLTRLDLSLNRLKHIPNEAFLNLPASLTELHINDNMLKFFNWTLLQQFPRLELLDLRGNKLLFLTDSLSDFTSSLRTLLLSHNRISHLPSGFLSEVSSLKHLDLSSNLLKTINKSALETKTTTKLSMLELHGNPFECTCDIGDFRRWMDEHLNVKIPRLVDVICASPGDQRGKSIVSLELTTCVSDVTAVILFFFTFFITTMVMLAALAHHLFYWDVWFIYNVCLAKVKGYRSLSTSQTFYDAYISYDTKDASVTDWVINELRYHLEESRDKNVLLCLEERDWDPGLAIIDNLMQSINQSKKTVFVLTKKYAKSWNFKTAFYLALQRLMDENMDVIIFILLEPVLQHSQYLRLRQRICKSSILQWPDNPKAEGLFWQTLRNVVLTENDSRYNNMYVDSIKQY
Source text: The mutation was confirmed by DNA sequencing.
as §1

CCOCc1nc2c(N)nc3ccccc3c2n1CC(C)(C)O [R848] was tested, and the “activation of wild-type TLR7 (luciferase activity)” value (wild-type TLR7; 10 nM R848, HEK 293, 5 h) was “did not result in significant activation”, the “concentration giving close-to-maximum activation of wild-type TLR7” value (wild-type TLR7; HEK 293, NFκB-luciferase) was 1 µM and the “induction of luciferase activity” value ([1]; 10 nM R848, HEK 293, 5 h, vs medium alone) was 6 fold. For the same molecule, the “fold lower concentration sufficient for full activation of mutant TLR7 versus wild-type TLR7” value ([2]; compared with for wild-type TLR7) was 10 fold, the “concentration required to achieve 5-fold induction of luciferase” value (wild-type TLR8; HEK 293, NFκB-luciferase) was “at least 0.5 μM” and the induction of luciferase ([3]; 50 nm of R848) was about 10 fold.
For C=CCn1c(=O)n([C@@H]2O[C@H](CO)[C@@H](O)[C@H]2O)c2nc(N)[nH]c(=O)c21 [loxoribine], the “concentration at which wild-type TLR7 is activated” value (wild-type TLR7; HEK 293, NFκB-luciferase) was “greater than 0.5 mM”, the “concentration achieving the same activation with mutant TLR7” value ([1]; same activation as wild-type TLR7 at >0.5 mM) was 0.1 mM and the “fold lower concentration for same activation of mutant TLR7 versus wild-type TLR7” value ([2]; 0.1 mM versus 0.5 mM) was 5 fold.
In the case of O=c1ccn([C@@H]2O[C@H](CO)[C@@H](O)[C@H]2O)c(=O)[nH]1 [uridine], the “activation of wild-type TLR8 (luciferase)” value (wild-type TLR8; 4.5 mM uridine, HEK 293, 5 h) was 3 fold and the “activation of mutant TLR8 (luciferase)” value ([3]; 4.5 mM uridine) was 15 fold.
